ChEMBL document CHEMBL1201862, “PubChem BioAssay data set” (2004)
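Results reflect a 48-hour exposure of cells in 96-well plates to compound at five concentrations. Here, GI50 denotes the concentration required for 50% inhibition of growth.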 Active and inactive are the calls of the source. Cut-off read from the data, not from the text of the source: active = GI50 up to about 1.1 µM and inactive = higher.

Legend:
Assay in all cases: growth of human tumour cells (NCI), 48 h
A549 = test system: A549
MCF7 = test system: MCF7
LOX IMVI = test system: LOX IMVI
EKVX = test system: EKVX
A498 = test system: A498
OVCAR-5 = test system: OVCAR-5
T47D = test system: T47D
NCI/ADR-RES = test system: NCI/ADR-RES
UACC-62 = test system: UACC-62
HCT-116 = test system: HCT-116
SR = test system: SR
UACC-257 = test system: UACC-257
SF-539 = test system: SF-539
SF-268 = test system: SF-268
RPMI-8226 = test system: RPMI-8226
CAKI-1 = test system: CAKI-1
SN12C = test system: SN12C
SK-MEL-28 = test system: SK-MEL-28
HCT-15 = test system: HCT-15
CCRF-CEM = test system: CCRF-CEM
MOLT-4 = test system: MOLT-4
786-0 = test system: 786-0
SNB-19 = test system: SNB-19
IGROV-1 = test system: IGROV-1
PC-3 = test system: PC-3
MDA-N = test system: MDA-N
NCI-H23 = test system: NCI-H23
KM12 = test system: KM12
SK-MEL-2 = test system: SK-MEL-2
MDA-MB-435 = test system: MDA-MB-435
HCC 2998 = test system: HCC 2998
NCI-H460 = test system: NCI-H460
OVCAR-8 = test system: OVCAR-8
HOP-92 = test system: HOP-92
COLO 205 = test system: COLO 205
MDA-MB-231 = test system: MDA-MB-231
ACHN = test system: ACHN
NCI-H522 = test system: NCI-H522
K562 = test system: K562
DU-145 = test system: DU-145
SK-MEL-5 = test system: SK-MEL-5
OVCAR-3 = test system: OVCAR-3
BT-549 = test system: BT-549
SK-OV-3 = test system: SK-OV-3
RXF 393 = test system: RXF 393
HL-60 = test system: HL-60
OVCAR-4 = test system: OVCAR-4
HOP-62 = test system: HOP-62
NCI-H226 = test system: NCI-H226
TK-10 = test system: TK-10
UO-31 = test system: UO-31
HT-29 = test system: HT-29
U-251 = test system: U-251
SF-295 = test system: SF-295
M14 = test system: M14
SW-620 = test system: SW-620
SNB-75 = test system: SNB-75
Malme-3M = test system: Malme-3M
Hs-578T = test system: Hs-578T

**Q.** What does the source list for COC(=O)[C@@H]1C[C@H]([Se]c2ccccc2)CN1S(=O)(=O)c1ccc(C)cc1?
**A.** GI50 (A549): 51.8 µM (inactive); GI50 (MCF7): 60.3 µM (inactive); GI50 (LOX IMVI): > 100 µM (inactive); GI50 (EKVX): > 100 µM (inactive); GI50 (A498): > 100 µM (inactive); GI50 (OVCAR-5): > 100 µM (inactive); GI50 (T47D): 35.7 µM (inactive); GI50 (NCI/ADR-RES): 34.1 µM (inactive); GI50 (UACC-62): > 100 µM (inactive); GI50 (HCT-116): 67.3 µM (inactive); GI50 (SR): 32.1 µM (inactive); GI50 (UACC-257): > 100 µM (inactive); GI50 (SF-539): > 100 µM (inactive); GI50 (SF-268): 27.9 µM (inactive); GI50 (RPMI-8226): 59.4 µM (inactive); GI50 (CAKI-1): > 100 µM (inactive); GI50 (SN12C): > 100 µM (inactive); GI50 (SK-MEL-28): 76.2 µM (inactive); GI50 (HCT-15): > 100 µM; GI50 (CCRF-CEM): 61 µM (inactive); GI50 (MOLT-4): 35.7 µM (inactive); GI50 (786-0): > 100 µM (inactive); GI50 (SNB-19): > 100 µM (inactive); GI50 (IGROV-1): > 100 µM (inactive); GI50 (PC-3): 26.5 µM (inactive); GI50 (MDA-N): > 100 µM (inactive); GI50 (NCI-H23): > 100 µM (inactive); GI50 (KM12): 68.9 µM (inactive); GI50 (SK-MEL-2): 21.4 µM (inactive); GI50 (MDA-MB-435): 47.1 µM (inactive); GI50 (HCC 2998): > 100 µM (inactive); GI50 (NCI-H460): > 100 µM (inactive); GI50 (OVCAR-8): > 100 µM (inactive); GI50 (HOP-92): > 100 µM (inactive); GI50 (COLO 205): 61.5 µM (inactive); GI50 (MDA-MB-231): > 100 µM (inactive); GI50 (ACHN): > 100 µM (inactive); GI50 (NCI-H522): 38.9 µM (inactive); GI50 (K562): 34.7 µM (inactive); GI50 (DU-145): > 100 µM (inactive); GI50 (SK-MEL-5): 45.2 µM (inactive); GI50 (OVCAR-3): 56 µM (inactive); GI50 (BT-549): 98.2 µM (inactive); GI50 (SK-OV-3): > 100 µM (inactive); GI50 (RXF 393): 39.4 µM (inactive); GI50 (HL-60): 36.3 µM (inactive); GI50 (OVCAR-4): 42.8 µM (inactive); GI50 (HOP-62): > 100 µM (inactive); GI50 (NCI-H226): > 100 µM (inactive); GI50 (TK-10): > 100 µM (inactive); GI50 (UO-31): 51.9 µM (inactive); GI50 (HT-29): 49.7 µM (inactive); GI50 (U-251): 53 µM (inactive); GI50 (SF-295): 40.9 µM (inactive); GI50 (M14): > 100 µM (inactive); GI50 (SW-620): > 100 µM (inactive); GI50 (SNB-75): 2.87 µM (inactive); GI50 (Malme-3M): > 100 µM (inactive); GI50 (Hs-578T): 60.7 µM (inactive)
